Data from patent US9290777B2, “Putative cytokinin receptor and methods for use thereof” (NATIONAL UNIVERSITY OF SINGAPORE, priority 2007, dated 2016).

Tested on: ARR4
Test: qRT-PCR of cytokinin responsive gene after BA pulse, fold change vs untreated wild type
Format: cell-based, Arabidopsis thaliana
Procedure: For quantitative real-time PCR (qRT-PCR) analysis of cytokinin-inducible gene expression, seeds were germinated on MS medium with 3% (w/v) sucrose and grown for 6 days. Cytokinin treatment was carried out by incubating seedlings in the same MS+sucrose liquid medium (no agar) supplemented with 0, 0.01, 0.1, 1 or 5 μM [solubilized in 0.1% dimethylsulfoxide (DMSO) and diluted with the MS medium] for 5 min, 15 min, 30 min or 1 h. The control seedlings were incubated with DMSO (0.1%, the concentration used to dissolve cytokinins for the treatment) for the corresponding durations and used for expression analysis. Before RNA preparation, WT, OE and AS seedlings were pooled and stored in RNAlater solution (Qiagen, Valencia, Calif.). Total RNA was extracted using the Rneasy Plant Mini Kit (Qiagen). SYBRgreen RT-PCR reagents (Applied Biosystems) were used to synthesize double-stranded cDNA. The number of transcripts present in biological replicates each of WT, OE and AS seedlings, with or without BA and DMSO, was determined from three independent replicates. Fold induction of the transcripts was calculated according to the manufacturer's instructions (ABI Prism 7700 Sequence Detection System, User Bulletin #2).

Q: Which ARR4 fold change (BA 0.01 μM, 5 min, AS1, ↑ up) does the source give for `c1ccc(CNc2ncnc3nc[nH]c23)cc1` [benzyladenine] here?
A: 4.12↑

Q: And the ARR4 fold change (BA 0.01 μM, 5 min, AS8, ↑ up)?
A: 6.1↑

Q: And the ARR4 fold change (BA 0.01 μM, 5 min, AS21, ↑ up)?
A: 8.01↑

Q: And the ARR4 fold change (BA 0.01 μM, 5 min, OE1, ↓ down)?
A: 5.01↓

Q: What about the ARR4 fold change (BA 0.01 μM, 5 min, OE12, ↓ down) of the same compound?
A: 5.87↓

Q: And the ARR4 fold change (BA 0.01 μM, 5 min, OE18, ↓ down)?
A: 7.56↓

Q: What about the ARR4 fold change (BA 0.01 μM, 5 min, Wild type, ↑ up) of the same compound?
A: 3.13↑

Q: And the ARR4 fold change (BA 0.01 μM, 15 min, AS1, ↑ up)?
A: 4.57↑

Q: And the ARR4 fold change (BA 0.01 μM, 15 min, AS8, ↑ up)?
A: 6.41↑

Q: And the ARR4 fold change (BA 0.01 μM, 15 min, AS21, ↑ up)?
A: 8.39↑

Q: And the ARR4 fold change (BA 0.01 μM, 15 min, OE1, ↓ down)?
A: 4.66↓

Q: What about the ARR4 fold change (BA 0.01 μM, 15 min, OE12, ↓ down) of the same compound?
A: 5.56↓

Q: And the ARR4 fold change (BA 0.01 μM, 15 min, OE18, ↓ down)?
A: 7.32↓

Q: And the ARR4 fold change (BA 0.01 μM, 15 min, Wild type, ↑ up)?
A: 3.67↑

Q: And the ARR4 fold change (BA 0.01 μM, 30 min, AS1, ↑ up)?
A: 4.98↑

Q: What about the ARR4 fold change (BA 0.01 μM, 30 min, AS8, ↑ up) of the same compound?
A: 6.86↑

Q: And the ARR4 fold change (BA 0.01 μM, 30 min, AS21, ↑ up)?
A: 8.53↑

Q: And the ARR4 fold change (BA 0.01 μM, 30 min, OE1, ↓ down)?
A: 4.41↓

Q: What about the ARR4 fold change (BA 0.01 μM, 30 min, OE12, ↓ down) of the same compound?
A: 5.13↓

Q: And the ARR4 fold change (BA 0.01 μM, 30 min, OE18, ↓ down)?
A: 7.13↓

Q: And the ARR4 fold change (BA 0.01 μM, 30 min, Wild type, ↑ up)?
A: 3.98↑

Q: What about the ARR4 fold change (BA 0.01 μM, 1 h, AS1, ↑ up) of the same compound?
A: 5.2↑

Q: What about the ARR4 fold change (BA 0.01 μM, 1 h, AS8, ↑ up) of the same compound?
A: 6.98↑

Q: What about the ARR4 fold change (BA 0.01 μM, 1 h, AS21, ↑ up) of the same compound?
A: 8.99↑

Q: What about the ARR4 fold change (BA 0.01 μM, 1 h, OE1, ↓ down) of the same compound?
A: 4.01↓

Q: What about the ARR4 fold change (BA 0.01 μM, 1 h, OE12, ↓ down) of the same compound?
A: 4.06↓

Q: What about the ARR4 fold change (BA 0.01 μM, 1 h, OE18, ↓ down) of the same compound?
A: 6.98↓

Q: And the ARR4 fold change (BA 0.01 μM, 1 h, Wild type, ↑ up)?
A: 4.15↑

Q: What about the ARR4 fold change (BA 0.1 μM, 5 min, AS1, ↑ up) of the same compound?
A: 5.14↑

Q: And the ARR4 fold change (BA 0.1 μM, 5 min, AS8, ↑ up)?
A: 7.12↑

Q: What about the ARR4 fold change (BA 0.1 μM, 5 min, AS21, ↑ up) of the same compound?
A: 9.11↑

Q: And the ARR4 fold change (BA 0.1 μM, 5 min, OE1, ↓ down)?
A: 4.56↓

Q: And the ARR4 fold change (BA 0.1 μM, 5 min, OE12, ↓ down)?
A: 4.91↓

Q: And the ARR4 fold change (BA 0.1 μM, 5 min, OE18, ↓ down)?
A: 6.89↓

Q: And the ARR4 fold change (BA 0.1 μM, 5 min, Wild type, ↑ up)?
A: 4.36↑

Q: What about the ARR4 fold change (BA 0.1 μM, 15 min, AS1, ↑ up) of the same compound?
A: 5.39↑

Q: And the ARR4 fold change (BA 0.1 μM, 15 min, AS8, ↑ up)?
A: 7.32↑

Q: And the ARR4 fold change (BA 0.1 μM, 15 min, AS21, ↑ up)?
A: 9.26↑

Q: And the ARR4 fold change (BA 0.1 μM, 15 min, OE1, ↓ down)?
A: 4.24↓

Q: And the ARR4 fold change (BA 0.1 μM, 15 min, OE12, ↓ down)?
A: 4.71↓

Q: And the ARR4 fold change (BA 0.1 μM, 15 min, OE18, ↓ down)?
A: 4.72↓

Q: And the ARR4 fold change (BA 0.1 μM, 15 min, Wild type, ↑ up)?
A: 4.58↑

Q: And the ARR4 fold change (BA 0.1 μM, 30 min, AS1, ↑ up)?
A: 5.69↑

Q: What about the ARR4 fold change (BA 0.1 μM, 30 min, AS8, ↑ up) of the same compound?
A: 7.57↑

Q: And the ARR4 fold change (BA 0.1 μM, 30 min, AS21, ↑ up)?
A: 9.48↑

Q: And the ARR4 fold change (BA 0.1 μM, 30 min, OE1, ↓ down)?
A: 4.12↓

Q: What about the ARR4 fold change (BA 0.1 μM, 30 min, OE12, ↓ down) of the same compound?
A: 4.59↓

Q: What about the ARR4 fold change (BA 0.1 μM, 30 min, OE18, ↓ down) of the same compound?
A: 4.36↓

Q: And the ARR4 fold change (BA 0.1 μM, 30 min, Wild type, ↑ up)?
A: 4.89↑

Q: And the ARR4 fold change (BA 0.1 μM, 1 h, AS1, ↑ up)?
A: 5.98↑

Q: What about the ARR4 fold change (BA 0.1 μM, 1 h, AS8, ↑ up) of the same compound?
A: 7.99↑

Q: And the ARR4 fold change (BA 0.1 μM, 1 h, AS21, ↑ up)?
A: 9.83↑

Q: What about the ARR4 fold change (BA 0.1 μM, 1 h, OE1, ↓ down) of the same compound?
A: 3.96↓

Q: What about the ARR4 fold change (BA 0.1 μM, 1 h, OE12, ↓ down) of the same compound?
A: 4.21↓

Q: What about the ARR4 fold change (BA 0.1 μM, 1 h, OE18, ↓ down) of the same compound?
A: 4.01↓

Q: What about the ARR4 fold change (BA 0.1 μM, 1 h, Wild type, ↑ up) of the same compound?
A: 4.99↑

Q: And the ARR4 fold change (BA 1.0 μM, 5 min, AS1, ↑ up)?
A: 6.43↑

Q: What about the ARR4 fold change (BA 1.0 μM, 5 min, AS8, ↑ up) of the same compound?
A: 8.01↑

Q: And the ARR4 fold change (BA 1.0 μM, 5 min, AS21, ↑ up)?
A: 9.93↑

Q: What about the ARR4 fold change (BA 1.0 μM, 5 min, OE1, ↓ down) of the same compound?
A: 3.76↓

Q: What about the ARR4 fold change (BA 1.0 μM, 5 min, OE12, ↓ down) of the same compound?
A: 4.19↓

Q: And the ARR4 fold change (BA 1.0 μM, 5 min, OE18, ↓ down)?
A: 3.36↓

Q: What about the ARR4 fold change (BA 1.0 μM, 5 min, Wild type, ↑ up) of the same compound?
A: 5.1↑

Q: And the ARR4 fold change (BA 1.0 μM, 15 min, AS1, ↑ up)?
A: 6.68↑

Q: What about the ARR4 fold change (BA 1.0 μM, 15 min, AS8, ↑ up) of the same compound?
A: 8.43↑

Q: And the ARR4 fold change (BA 1.0 μM, 15 min, AS21, ↑ up)?
A: 10.02↑

Q: What about the ARR4 fold change (BA 1.0 μM, 15 min, OE1, ↓ down) of the same compound?
A: 3.51↓

Q: And the ARR4 fold change (BA 1.0 μM, 15 min, OE12, ↓ down)?
A: 4.01↓

Q: And the ARR4 fold change (BA 1.0 μM, 15 min, OE18, ↓ down)?
A: 3.21↓

Q: What about the ARR4 fold change (BA 1.0 μM, 15 min, Wild type, ↑ up) of the same compound?
A: 5.31↑

Q: And the ARR4 fold change (BA 1.0 μM, 30 min, AS1, ↑ up)?
A: 6.73↑

Q: What about the ARR4 fold change (BA 1.0 μM, 30 min, AS8, ↑ up) of the same compound?
A: 8.69↑

Q: What about the ARR4 fold change (BA 1.0 μM, 30 min, AS21, ↑ up) of the same compound?
A: 10.35↑

Q: What about the ARR4 fold change (BA 1.0 μM, 30 min, OE1, ↓ down) of the same compound?
A: 3.29↓

Q: What about the ARR4 fold change (BA 1.0 μM, 30 min, OE12, ↓ down) of the same compound?
A: 3.89↓

Q: And the ARR4 fold change (BA 1.0 μM, 30 min, OE18, ↓ down)?
A: 3.01↓

Q: What about the ARR4 fold change (BA 1.0 μM, 30 min, Wild type, ↑ up) of the same compound?
A: 5.59↑

Q: What about the ARR4 fold change (BA 1.0 μM, 1 h, AS1, ↑ up) of the same compound?
A: 7.01↑

Q: And the ARR4 fold change (BA 1.0 μM, 1 h, AS8, ↑ up)?
A: 8.93↑

Q: And the ARR4 fold change (BA 1.0 μM, 1 h, AS21, ↑ up)?
A: 10.76↑

Q: What about the ARR4 fold change (BA 1.0 μM, 1 h, OE1, ↓ down) of the same compound?
A: 3.01↓

Q: And the ARR4 fold change (BA 1.0 μM, 1 h, OE12, ↓ down)?
A: 3.56↓

Q: And the ARR4 fold change (BA 1.0 μM, 1 h, OE18, ↓ down)?
A: 2.92↓

Q: And the ARR4 fold change (BA 1.0 μM, 1 h, Wild type, ↑ up)?
A: 5.87↑

Q: And the ARR4 fold change (BA 5.0 μM, 5 min, AS1, ↑ up)?
A: 6.98↑

Q: And the ARR4 fold change (BA 5.0 μM, 5 min, AS8, ↑ up)?
A: 8.98↑

Q: What about the ARR4 fold change (BA 5.0 μM, 5 min, AS21, ↑ up) of the same compound?
A: 10.43↑

Q: What about the ARR4 fold change (BA 5.0 μM, 5 min, OE1, ↓ down) of the same compound?
A: 3.19↓

Q: What about the ARR4 fold change (BA 5.0 μM, 5 min, OE12, ↓ down) of the same compound?
A: 3.87↓

Q: What about the ARR4 fold change (BA 5.0 μM, 5 min, OE18, ↓ down) of the same compound?
A: 2.45↓

Q: What about the ARR4 fold change (BA 5.0 μM, 5 min, Wild type, ↑ up) of the same compound?
A: 6.52↑

Q: What about the ARR4 fold change (BA 5.0 μM, 15 min, AS1, ↑ up) of the same compound?
A: 7.01↑

Q: What about the ARR4 fold change (BA 5.0 μM, 15 min, AS8, ↑ up) of the same compound?
A: 9.07↑

Q: What about the ARR4 fold change (BA 5.0 μM, 15 min, AS21, ↑ up) of the same compound?
A: 10.54↑

Q: What about the ARR4 fold change (BA 5.0 μM, 15 min, OE1, ↓ down) of the same compound?
A: 3.01↓

Q: What about the ARR4 fold change (BA 5.0 μM, 15 min, OE12, ↓ down) of the same compound?
A: 3.62↓

Q: What about the ARR4 fold change (BA 5.0 μM, 15 min, OE18, ↓ down) of the same compound?
A: 2.18↓

Q: What about the ARR4 fold change (BA 5.0 μM, 15 min, Wild type, ↑ up) of the same compound?
A: 6.69↑

Q: What about the ARR4 fold change (BA 5.0 μM, 30 min, AS1, ↑ up) of the same compound?
A: 7.23↑

Q: And the ARR4 fold change (BA 5.0 μM, 30 min, Wild type, ↑ up)?
A: 6.89↑
